The values below come from patent US11845724B2, “USP30 inhibitors and uses thereof” (Vincere Biosciences, Inc., priority 2019, dated 2023).

Experiment [1] addresses USP30 (Homo sapiens (Human), UniProt Q70CQ3). Briefly: Dundee MALDI-TOF mass spectrometry assay (IC50). Type of experiment: biochemical. The settings on record: USP30 25 ng/μl, K48-linked diubiquitin 5.6 μM, avg, read-out: Dundee IC50 μM (avg in vitro MS assay). As to the method: Compounds were tested in a MALDI-TOF assay based on the paper by Ritorto et al. (Ritorto et al. Screening of DUB activity and specificity by MALDI-TOF mass spectrometry. Nat. […] USP30 (25 ng/μl) tested against K48-linked diubiquitin (5.6 μM). USP30 was diluted in a buffer containing 40 mM Tris, 0.01% BSA, 1 mM DTT and K48 in 40 mM Tris, 0.01% BSA. The compounds were pre-incubated with the USP30 for 5 mins at room temp before the K48 dimer addition. The assay mixture was then incubated for 45 mins at room temp. The assay was stopped by the addition of TFA to a final concentration of 2% (v/v). […] Then 250 nl of these solutions were spotted onto an MTP AnchorChip 1,536 TF and this is analysed on the Bruker rapifleX MALDI-TOF.

Experiment [2] addresses recombinant USP30 (amino acids 57-517 of the human sequence) (Homo sapiens (Human), UniProt Q70CQ3). As to the kind of experiment: In vitro USP30 biochemical assay (Ubiquitin-Rhodamine).
[3] abbreviates: USP30 IC50 μM (avg), Ubiquitin-Rhodamine substrate 25 nM, 1.5 nM recombinant USP30.
[4] abbreviates: read-out: USP30 IC50 μM (avg), Ubiquitin-Rhodamine substrate 25 nM, 1.5 nM recombinant USP30.

Where two headings read alike, the source gives them in different places.

The IC50 is the concentration that gives 50% inhibition.

USP30, sequence (Q70CQ3 whole entry): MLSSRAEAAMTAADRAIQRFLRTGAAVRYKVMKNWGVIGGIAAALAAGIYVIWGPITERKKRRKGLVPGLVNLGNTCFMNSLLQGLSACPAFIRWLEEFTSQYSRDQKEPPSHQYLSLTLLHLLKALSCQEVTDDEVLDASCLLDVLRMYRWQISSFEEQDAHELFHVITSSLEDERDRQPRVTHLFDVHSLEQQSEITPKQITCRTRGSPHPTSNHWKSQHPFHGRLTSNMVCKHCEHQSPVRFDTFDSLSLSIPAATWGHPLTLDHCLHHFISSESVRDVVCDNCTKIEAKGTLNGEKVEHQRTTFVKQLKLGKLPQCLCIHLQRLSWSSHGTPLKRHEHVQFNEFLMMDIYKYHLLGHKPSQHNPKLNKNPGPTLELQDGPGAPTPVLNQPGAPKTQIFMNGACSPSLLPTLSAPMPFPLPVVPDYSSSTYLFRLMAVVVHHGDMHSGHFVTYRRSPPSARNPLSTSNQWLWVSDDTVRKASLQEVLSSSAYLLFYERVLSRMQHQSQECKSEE
recombinant USP30 (amino acids 57-517 of the human sequence), sequence (Q70CQ3 57-517): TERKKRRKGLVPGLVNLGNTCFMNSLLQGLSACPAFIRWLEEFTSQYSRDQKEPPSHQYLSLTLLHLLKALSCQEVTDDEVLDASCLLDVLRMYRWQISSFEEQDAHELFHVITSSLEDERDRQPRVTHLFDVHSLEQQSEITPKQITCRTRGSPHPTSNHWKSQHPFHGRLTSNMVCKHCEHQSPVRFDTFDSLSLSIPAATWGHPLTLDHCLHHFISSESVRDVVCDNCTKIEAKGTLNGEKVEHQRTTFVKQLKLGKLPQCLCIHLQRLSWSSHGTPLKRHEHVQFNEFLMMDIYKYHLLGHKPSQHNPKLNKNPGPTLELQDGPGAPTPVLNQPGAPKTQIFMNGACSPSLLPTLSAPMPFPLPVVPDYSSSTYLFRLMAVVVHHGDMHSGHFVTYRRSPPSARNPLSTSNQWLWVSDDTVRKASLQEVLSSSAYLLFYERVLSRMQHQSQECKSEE

For `CC(C)(C)NS(=O)(=O)c1ccc(NC(=O)[C@H](Cc2c[nH]c3ccccc23)NC(=O)c2ccc(F)cc2)cc1` [Compound I-1, (S)-N-(1-(4-(N-tert-butylsulfamoyl)phenylamino)-3-(1H-indol-3-yl)-1-oxopropan-2-yl)-4-fluorobenzamide], the concentration for half-maximal inhibition (IC50) in experiment [1] was in the range of 0.05 to 1 µM.

For `CC(C)(C)CS(=O)(=O)c1ccc(NC(=O)[C@H](Cc2ccccc2)NC(=O)c2ccc(F)cc2)cc1` [Compound I-2, (S)-4-fluoro-N-(1-(4-(2,2-Dimethyl-propylsulfonyl)phenylamino)-1-oxo-3-phenylpropan-2-yl)benzamide], the IC50 in experiment [1] is 0.05 to 1 µM.

Consider `CC(C)(C)CS(=N)(=O)c1ccc(NC(=O)[C@H](Cc2ccccc2)NC(=O)c2ccc(F)cc2)cc1` (stereo partly drawn) [Compound I-3, N-((2S)-1-(4-(2,2-dimethylpropylsulfonimidoyl)phenylamino)-1-oxo-3-phenylpropan-2-yl)-4-fluorobenzamide], for which, in experiment [1], the 50% inhibitory concentration (IC50) was more than 10 µM.

In the case of `CC(C)(C)C[S+]([O-])c1ccc(NC(=O)[C@H](Cc2ccccc2)NC(=O)c2ccc(F)cc2)cc1` (stereo partly drawn) [Compound I-4, 4-fluoro-N-((2S)-1-(4-(neopentylsulfinyl)phenylamino)-1-oxo-3-phenylpropan-2-yl)benzamide], the IC50 in experiment [1] lay in the range of 0.05 to 1 µM; in experiment [2] (setting [3]), 1 to 10 µM.

In the case of `O=C(N[C@@H](Cc1ccccc1)C(=O)Nc1ccc(S(=O)(=O)NC2CC2)cc1)c1ccc(F)cc1` [Compound I-6, (S)-N-(1-(4-(N-cyclopropylsulfamoyl)phenylamino)-1-oxo-3-phenylpropan-2-yl)-4-fluorobenzamide], in experiment [1], the IC50 is less than 0.05 µM.

On to `O=C(N[C@@H](Cc1ccccc1)C(=O)Nc1ccc(S(=O)(=O)NC2CCC2)cc1)c1ccc(F)cc1` [Compound I-7, (S)-N-(1-(4-(N-cyclobutylsulfamoyl)phenylamino)-1-oxo-3-phenylpropan-2-yl)-4-fluorobenzamide], for which the concentration for half-maximal inhibition (IC50) in experiment [1] is less than 0.05 µM.

Take `O=C(N[C@@H](Cc1ccccc1)C(=O)Nc1ccc(S(=O)(=O)NC2CCCC2)cc1)c1ccc(F)cc1` [Compound I-8, (S)-N-(1-(4-(N-cyclopentylsulfamoyl)phenylamino)-1-oxo-3-phenylpropan-2-yl)-4-fluorobenzamide]: the half-inhibitory concentration (IC50) in experiment [1] is less than 0.05 µM.

In the case of `O=C(N[C@@H](Cc1ccccc1)C(=O)Nc1ccc(S(=O)(=O)NCC2CC2)cc1)c1ccc(F)cc1` [Compound I-9, (S)-N-(1-(4-(N-(cyclopropylmethyl)sulfamoyl)phenylamino)-1-oxo-3-phenylpropan-2-yl)-4-fluorobenzamide], in experiment [1], the IC50 was less than 0.05 µM.

Turning to `CC[C@@H](C)NS(=O)(=O)c1ccc(NC(=O)[C@H](Cc2ccccc2)NC(=O)c2ccc(F)cc2)cc1` [Compound I-12, N-((S)-1-((4-(N-((R)-sec-butyl)sulfamoyl)phenyl)amino)-1-oxo-3-phenylpropan-2-yl)-4-fluorobenzamide], the concentration for half-maximal inhibition (IC50) in experiment [1] was less than 0.05 µM.

`CCC(C)(C)NS(=O)(=O)c1ccc(NC(=O)[C@H](Cc2ccccc2)NC(=O)c2ccc(F)cc2)cc1` [Compound I-24, (S)-4-fluoro-N-(1-oxo-1-(4-(N-tert-pentylsulfamoyl)phenylamino)-3-phenylpropan-2-yl)benzamide]: the IC50 in experiment [1] was less than 0.05 µM.

Consider `O=C(N[C@@H](Cc1ccccc1)C(=O)Nc1ccc(S(=O)(=O)NC2CCCCC2)cc1)c1ccc(F)cc1` [Compound I-31, (S)-N-(1-(4-(N-cyclohexylsulfamoyl)phenylamino)-1-oxo-3-phenylpropan-2-yl)-4-fluorobenzamide], for which, in experiment [1], the half-maximal inhibitory concentration (IC50) was in the range of 0.05 to 1 µM.

For the molecule `O=C(N[C@@H](Cc1ccccc1)C(=O)Nc1ccc(S(=O)(=O)Nc2ccccc2)cc1)c1ccc(F)cc1` [Compound I-32, (S)-4-fluoro-N-(1-oxo-3-phenyl-1-(4-(N-phenylsulfamoyl)phenylamino)propan-2-yl)benzamide], the IC50 in experiment [1] was in the range of 0.05 to 1 µM.

Regarding `CC(C)(C)NS(=O)(=O)c1ccc(NC(=O)C2Cc3ncccc3N2C(=O)c2ccc(F)cc2)cc1` (centres unmarked) [Compound I-54, N-(4-(N-tert-butylsulfamoyl)phenyl)-1-(4-fluorobenzoyl)-2,3-dihydro-1H-pyrrolo[3,2-b]pyridine-2-carboxamide], the IC50 in experiment [1] was more than 1 µM.

Consider `CC(C)(C)NS(=O)(=O)c1ccc(NC(=O)[C@H](Cc2ccccc2)NC(=O)c2ccc(F)cc2)nc1` [Compound I-61, (S)-N-(1-(5-(N-tert-butylsulfamoyl)pyridin-2-ylamino)-1-oxo-3-phenylpropan-2-yl)-4-fluorobenzamide], for which, in experiment [1], the 50% inhibitory concentration (IC50) is less than 0.05 µM.

For the molecule `CC(C)(C)NS(=O)(=O)c1ccc(NC(=O)[C@H](Cc2ccccc2)NC(=O)c2ccc(F)cc2)cn1` [Compound I-62, (S)-N-(1-(6-(N-tert-butylsulfamoyl)pyridin-3-ylamino)-1-oxo-3-phenylpropan-2-yl)-4-fluorobenzamide], the IC50 in experiment [1] is less than 0.05 µM.

Turning to `CC(C)(C)NS(=O)(=O)c1ccc(NC(=O)[C@H](Cc2ccccc2)NC(=O)c2ccc(F)cc2)s1` [Compound I-63, (S)-N-(1-(5-(N-tert-butylsulfamoyl)thiophen-2-ylamino)-1-oxo-3-phenylpropan-2-yl)-4-fluorobenzamide], in experiment [1], the IC50 is 0.05 to 1 µM.

As for `C[C@@H](NS(=O)(=O)c1ccc(NC(=O)[C@H](Cc2ccccc2)NC(=O)c2ccc(F)cc2)cc1)C1CC1` [Compound I-67, N-((S)-1-(4-(N-((R)-1-cyclopropylethyl)sulfamoyl)phenylamino)-1-oxo-3-phenylpropan-2-yl)-4-fluorobenzamide], the concentration for half-maximal inhibition (IC50) in experiment [1] was less than 0.05 µM.

Consider `CC(C)(C)NS(=O)(=O)c1ccc(NC(=O)[C@H](Cc2ccccc2)N2Cc3ccccc3C2=O)cc1` [Compound I-69, (S)-N-(4-(N-tert-butylsulfamoyl)phenyl)-2-(1-oxoisoindolin-2-yl)-3-phenylpropanamide], for which, in experiment [1], the concentration for half-maximal inhibition (IC50) is 1 to 10 µM.

With `C#CC(C)(C)NS(=O)(=O)c1ccc(NC(=O)[C@H](Cc2ccccc2)NC(=O)c2ccc(F)cc2)cc1` [Compound I-173, (S)-4-fluoro-N-(1-(4-(N-(2-methylbut-3-yn-2-yl)sulfamoyl)phenylamino)-1-oxo-3-phenylpropan-2-yl)benzamide], the IC50 in experiment [2] (setting [4]) was less than 0.05 µM.

Regarding `O=C(N[C@@H](Cc1ccccc1)C(=O)Nc1ccc(S(=O)(=O)N[C@H]2CCOC2)cc1)c1ccc(F)cc1` [Compound I-174, 4-fluoro-N-((S)-1-oxo-3-phenyl-1-(4-(N-((S)-tetrahydrofuran-3-yl)sulfamoyl)phenylamino)propan-2-yl)benzamide], the 50% inhibitory concentration (IC50) in experiment [2] (setting [4]) is less than 0.05 µM.

With `CC(C)(C#N)NS(=O)(=O)c1ccc(NC(=O)[C@H](Cc2ccccc2)NC(=O)c2ccc(F)cc2)cn1` [Compound I-176, (S)-N-(1-(6-(N-(2-cyanopropan-2-yl)sulfamoyl)pyridin-3-ylamino)-1-oxo-3-phenylpropan-2-yl)-4-fluorobenzamide], the IC50 in experiment [2] (setting [3]) was in the range of 0.05 to 1 µM.

For `C#CC(C)(C)NS(=O)(=O)c1ccc(NC(=O)[C@H](Cc2ccccc2)NC(=O)c2ccc(F)cc2)cn1` [Compound I-177, (S)-4-fluoro-N-(1-(6-(N-(2-methylbut-3-yn-2-yl)sulfamoyl)pyridin-3-ylamino)-1-oxo-3-phenylpropan-2-yl)benzamide], in experiment [2] (setting [3]), the 50% inhibitory concentration (IC50) lay within 0.05 to 1 µM.

Regarding `O=C(N[C@@H](Cc1ccccc1)C(=O)Nc1ccc(S(=O)(=O)N[C@H]2CCOC2)nc1)c1ccc(F)cc1` [Compound I-178, 4-fluoro-N-((S)-1-oxo-3-phenyl-1-(6-(N-((S)-tetrahydrofuran-3-yl)sulfamoyl)pyridin-3-ylamino)propan-2-yl)benzamide], in experiment [2] (setting [4]), the 50% inhibitory concentration (IC50) was less than 0.05 µM.

Turning to `O=C(N[C@@H](Cc1ccccc1)C(=O)Nc1ccc(S(=O)(=O)N[C@@H]2CCOC2)nc1)c1ccc(F)cc1` [Compound I-179, 4-fluoro-N-((S)-1-oxo-3-phenyl-1-(6-(N-((R)-tetrahydrofuran-3-yl)sulfamoyl)pyridin-3-ylamino)propan-2-yl)benzamide], the IC50 in experiment [2] (setting [3]) lay within 0.05 to 1 µM.

`COc1cc(NC(=O)[C@H](Cc2ccccc2)NC(=O)c2ccc(F)cc2)ccc1S(=O)(=O)NC(C)(C)C#N` [Compound I-180, (S)-N-(1-(4-(N-(2-cyanopropan-2-yl)sulfamoyl)-3-methoxyphenylamino)-1-oxo-3-phenylpropan-2-yl)-4-fluorobenzamide]: the 50% inhibitory concentration (IC50) in experiment [2] (setting [3]) lay in the range of 0.05 to 1 µM.

Turning to `C#CC(C)(C)NS(=O)(=O)c1ccc(NC(=O)[C@H](Cc2ccccc2)NC(=O)c2ccc(F)cc2)cc1OC` [Compound I-181, (S)-4-fluoro-N-(1-(3-methoxy-4-(N-(2-methylbut-3-yn-2-yl)sulfamoyl)phenylamino)-1-oxo-3-phenylpropan-2-yl)benzamide], the IC50 in experiment [2] (setting [3]) was in the range of 0.05 to 1 µM.

With `COc1cc(NC(=O)[C@H](Cc2ccccc2)NC(=O)c2ccc(F)cc2)ccc1S(=O)(=O)N[C@H]1CCOC1` [Compound I-182, 4-fluoro-N-((S)-1-(3-methoxy-4-(N-((S)-tetrahydrofuran-3-yl)sulfamoyl)phenylamino)-1-oxo-3-phenylpropan-2-yl)benzamide], the half-maximal inhibitory concentration (IC50) in experiment [2] (setting [4]) was less than 0.05 µM.

Turning to `COc1cc(NC(=O)[C@H](Cc2ccccc2)NC(=O)c2ccc(F)cc2)ccc1S(=O)(=O)N[C@@H]1CCOC1` [Compound I-183, 4-fluoro-N-((S)-1-(3-methoxy-4-(N-((R)-tetrahydrofuran-3-yl)sulfamoyl)phenylamino)-1-oxo-3-phenylpropan-2-yl)benzamide], the IC50 in experiment [2] (setting [4]) was less than 0.05 µM.
